Tested on: p-IKKa levels in L363 (NIK translocated multiple myeloma) cells
Assay: Assay 2: Effect of compounds on p-IKKa levels in L363 (NIK translocated multiple myeloma) cells
Assay type: cell-based
Settings: Homo sapiens, L-363, 6 h, read-out: Assay 2 IC50 (nM), p-IKKa (Ser 176/180) in BAFF stimulated L363 cells with MG132, 6 h; average if tested more than once
Method in brief: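 L363 cells incubated overnight ± 250 ng/ml BAFF, then 6 h at 37 °C with compound (0.3% DMSO) ± 10 μM MG132. Lysates assayed for p-IKKa (Ser176/180) by AlphaLISA SureFire. IC50 from sigmoidal fit of % inhibition normalized to BAFF/MG132-stimulated and unstimulated controls.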

CN1CC[C@@](O)(c2cc(-c3cccc(-c4ccnc(Nc5cc(F)n(C)n5)n4)n3)no2)C1=O [Example 295, (R)-3-(3-(6-(2-((5-Fluoro-1-methyl-1H-pyrazol-3-yl)amino)pyrimidin-4-yl)pyridin-2-yl)isoxazol-5-yl)-3-hydroxy-1-methylpyrrolidin-2-one]
IC50: < 50 nM

Cc1nc(-c2ccc(Nc3nccc(-c4cccc(-c5cc([C@]6(O)CCN(C)C6=O)on5)n4)n3)nc2)n(C)n1 [Example 309, (R)-3-(3-(6-(2-((5-(1,3-Dimethyl-1H-1,2,4-triazol-5-yl)pyridin-2-yl)amino)pyrimidin-4-yl)pyridin-2-yl)isoxazol-5-yl)-3-hydroxy-1-methylpyrrolidin-2-one]
IC50: > 500 nM

CN1CC[C@@](O)(c2cc(-c3cccc(-c4ccnc(NC5CCC(C(F)(F)F)CC5)n4)n3)no2)C1=O (stereo partly drawn) [Example 451, (R)-3-Hydroxy-1-methyl-3-(3-(6-(2-((4-(trifluoromethyl)cyclohexyl)amino)pyrimidin-4-yl)pyridin-2-yl)isoxazol-5-yl)pyrrolidin-2-one]
IC50: > 500 nM

CN1CC[C@@](O)(c2cc(-c3cccc(-c4ccnc(Nc5cnn(C)c5N)n4)c3)no2)C1=O [Example 21, (R)-3-(3-(3-(2-((5-Amino-1-methyl-1H-pyrazol-4-yl)amino)pyrimidin-4-yl)phenyl)isoxazol-5-yl)-3-hydroxy-1-methylpyrrolidin-2-one]
IC50: > 500 nM

CN1CC[C@@](O)(c2cc(-c3cccc(-c4ccnc(Nc5ccnc(N6CCOCC6)c5)n4)n3)no2)C1=O [Example 320]
IC50: < 50 nM

CN1CC[C@@](O)(c2cc(-c3cccc(-c4ccnc(N[C@H]5CCOC5)n4)c3)no2)C1=O [Example 11, (R)-3-Hydroxy-1-methyl-3-(3-(3-(2-(((S)-tetrahydrofuran-3-yl)amino)pyrimidin-4-yl)phenyl)isoxazol-5-yl)pyrrolidin-2-one]
IC50: > 500 nM

CN1CC[C@@](O)(c2cc(-c3cccc(-c4ccnc(Nc5ccn(CC6CCOCC6)n5)n4)n3)no2)C1=O [Example 270, (R)-3-Hydroxy-1-methyl-3-(3-(6-(2-((1-((tetrahydro-2H-pyran-4-yl)methyl)-1H-pyrazol-3-yl)amino)pyrimidin-4-yl)pyridin-2-yl)isoxazol-5-yl)pyrrolidin-2-one]
IC50: < 50 nM

CN1CC[C@@](O)(c2cc(-c3cccc(-c4ccnc(Nc5cn(C)nc5F)n4)n3)no2)C1=O [Example 262, (R)-3-(3-(6-(2-((3-Fluoro-1-methyl-1H-pyrazol-4-yl)amino)pyrimidin-4-yl)pyridin-2-yl)isoxazol-5-yl)-3-hydroxy-1-methylpyrrolidin-2-one]
IC50: < 50 nM

CN1CC[C@@](O)(c2cc(-c3cccc(-c4ccnc(NC5CCN(CC(F)F)C5)n4)n3)no2)C1=O (stereo partly drawn) [Example 365, (3R)-3-(3-(6-(2-((1-(2,2-Difluoroethyl)pyrrolidin-3-yl)amino)pyrimidin-4-yl)pyridin-2-yl)isoxazol-5-yl)-3-hydroxy-1-methylpyrrolidin-2-one]
IC50: > 500 nM

CN1CC[C@@](O)(c2cc(-c3cccc(-c4ccnc(N[C@@H]5CCOC5)n4)c3)no2)C1=O [Example 12, (R)-3-Hydroxy-1-methyl-3-(3-(3-(2-(((R)-tetrahydrofuran-3-yl)amino)pyrimidin-4-yl)phenyl)isoxazol-5-yl)pyrrolidin-2-one]
IC50: > 500 nM

CN1CC[C@@](O)(c2cc(-c3cccc(-c4ccnc(Nc5nn(C)c6ncccc56)n4)c3)no2)C1=O [Example 421, (R)-3-Hydroxy-1-methyl-3-(3-(3-(2-((1-methyl-1H-pyrazolo[3,4-b]pyridin-3-yl)amino)pyrimidin-4-yl)phenyl)isoxazol-5-yl)pyrrolidin-2-one]
IC50: > 500 nM

CCn1cc(Nc2nccc(-c3cccc(-c4cc([C@]5(O)CCN(C)C5=O)on4)n3)n2)cn1 [Example 46, (R)-3-(3-(6-(2-((1-Ethyl-1H-pyrazol-4-yl)amino)pyrimidin-4-yl)pyridin-2-yl)isoxazol-5-yl)-3-hydroxy-1-methylpyrrolidin-2-one]
IC50: < 50 nM

CN1CC[C@@](O)(c2cc(-c3cccc(-c4ccnc(NC5CCOCC5)n4)n3)no2)C1=O [Example 452, (R)-3-Hydroxy-1-methyl-3-(3-(6-(2-((tetrahydro-2H-pyran-4-yl)amino)pyrimidin-4-yl)pyridin-2-yl)isoxazol-5-yl)pyrrolidin-2-one]
IC50: 50 to 500 nM

CN1CC[C@@](O)(c2cn(-c3cccc(-c4ccnc(Nc5cnn(C)c5Cl)n4)n3)nn2)C1=O [Example 327, (R)-3-(1-(6-(2-((5-Chloro-1-methyl-1H-pyrazol-4-yl)amino)pyrimidin-4-yl)pyridin-2-yl)-1H-1,2,3-triazol-4-yl)-3-hydroxy-1-methylpyrrolidin-2-one]
IC50: < 50 nM

CCn1ncc(Nc2nccc(-c3cccc(-c4cc([C@]5(O)CCN(C)C5=O)on4)n3)n2)c1OC [Example 220, (R)-3-(3-(6-(2-((1-Ethyl-5-methoxy-1H-pyrazol-4-yl)amino)pyrimidin-4-yl)pyridin-2-yl)isoxazol-5-yl)-3-hydroxy-1-methylpyrrolidin-2-one]
IC50: 50 to 500 nM

C[C@H](Nc1nccc(-c2cccc(-c3cc([C@]4(O)CCN(C)C4=O)on3)n2)n1)c1cnc2ccccn12 (single isomer, unassigned) [Example 161]
IC50: 50 to 500 nM

CN1CC[C@@](O)(c2cc(-c3cccc(-c4cc(Cl)nc(Nc5ccn(C)n5)n4)n3)no2)C1=O [Example 101, (R)-3-(3-(6-(6-Chloro-2-((1-methyl-1H-pyrazol-3-yl)amino)pyrimidin-4-yl)pyridin-2-yl)isoxazol-5-yl)-3-hydroxy-1-methylpyrrolidin-2-one]
IC50: > 500 nM

C[C@@H]1OCC[C@@H]1Nc1nccc(-c2cccc(-c3cc([C@]4(O)CCN(C)C4=O)on3)n2)n1 (single isomer, unassigned) [Example 347]
IC50: 50 to 500 nM

CN1CC[C@@](O)(c2cc(-c3cccc(-c4ccnc(Nc5cc(N)n(C)n5)n4)c3)no2)C1=O [Example 414, (R)-3-(3-(3-(2-((5-Amino-1-methyl-1H-pyrazol-3-yl)amino)pyrimidin-4-yl)phenyl)isoxazol-5-yl)-3-hydroxy-1-methylpyrrolidin-2-one]
IC50: > 500 nM

CN1CC[C@@](O)(c2cc(-c3cccc(-c4ccnc(NC(c5cnn(C)c5)C(F)(F)F)n4)n3)no2)C1=O (mixture of isomers) [Example 96, (R)-3-Hydroxy-1-methyl-3-(3-(6-(2-(((RS)-2,2,2-trifluoro-1-(1-methyl-1H-pyrazol-4-yl)ethyl)amino)pyrimidin-4-yl)pyridin-2-yl)isoxazol-5-yl)pyrrolidin-2-one]
IC50: 50 to 500 nM

CN1CC[C@@](O)(c2cc(-c3cccc(-c4ccnc(N[C@@H]5COC[C@H]5F)n4)n3)no2)C1=O [Example 342, (R)-3-(3-(6-(2-(((trans)-4-Fluorotetrahydrofuran-3-yl)amino)pyrimidin-4-yl)pyridin-2-yl)isoxazol-5-yl)-3-hydroxy-1-methylpyrrolidin-2-one]
IC50: 50 to 500 nM

COCCn1ccc(Nc2nccc(-c3cccc(-c4cc([C@]5(O)CCN(C)C5=O)on4)n3)n2)n1 (single isomer, unassigned) [Example 199, (*R)-3-Hydroxy-3-(3-(6-(2-((1-(2-methoxyethyl)-1H-pyrazol-3-yl)amino)pyrimidin-4-yl)pyridin-2-yl)isoxazol-5-yl)-1-methylpyrrolidin-2-one]
IC50: < 50 nM

CN1CC[C@@](O)(c2cc(-c3cccc(-c4ccnc(NCCF)n4)n3)no2)C1=O [Example 364, (R)-3-(3-(6-(2-((2-Fluoroethyl)amino)pyrimidin-4-yl)pyridin-2-yl)isoxazol-5-yl)-3-hydroxy-1-methylpyrrolidin-2-one]
IC50: 50 to 500 nM

CN1CC[C@@](O)(c2cc(-c3cccc(-c4ccnc(Nc5cnn6c5CNCC6)n4)c3)no2)C1=O [Example 419, (R)-3-Hydroxy-1-methyl-3-(3-(3-(2-((4,5,6,7-tetrahydropyrazolo[1,5-a]pyrazin-3-yl)amino)pyrimidin-4-yl)phenyl)isoxazol-5-yl)pyrrolidin-2-one]
IC50: > 500 nM

CN1CC[C@@](O)(c2cn(-c3cccc(-c4ccnc(Nc5cnn(C)c5Cl)n4)n3)cn2)C1=O (single isomer, unassigned) [Example 107]
IC50: > 500 nM

C[C@@H](Nc1nccc(-c2cccc(-c3cc([C@]4(O)CCN(C)C4=O)on3)n2)n1)C(=O)N1CC(C)(F)C1 [Example 177, (R)-3-(3-(6-(2-(((R)-1-(3-Fluoro-3-methylazetidin-1-yl)-1-oxopropan-2-yl)amino)pyrimidin-4-yl)pyridin-2-yl)isoxazol-5-yl)-3-hydroxy-1-methylpyrrolidin-2-one]
IC50: > 500 nM

CC(Nc1nccc(-c2cccc(-c3cc([C@]4(O)CCN(C)C4=O)on3)n2)n1)c1nnc2ncccn12 (stereo partly drawn) [Example 395, (3R)-3-(3-(6-(2-((1-([1,2,4]Triazolo[4,3-a]pyrimidin-3-yl)ethyl)amino)pyrimidin-4-yl)pyridin-2-yl)isoxazol-5-yl)-3-hydroxy-1-methylpyrrolidin-2-one]
IC50: 50 to 500 nM

C[C@H](Nc1nccc(-c2cccc(-c3cc([C@]4(O)CCN(C)C4=O)on3)n2)n1)c1cnnn1C [Example 384, (R)-3-Hydroxy-1-methyl-3-(3-(6-(2-(((S)-1-(1-methyl-1H-1,2,3-triazol-5-yl)ethyl)amino)pyrimidin-4-yl)pyridin-2-yl)isoxazol-5-yl)pyrrolidin-2-one]
IC50: 50 to 500 nM

C[C@H](Nc1nccc(-c2cccc(-c3cc([C@]4(O)CCN(C)C4=O)on3)n2)n1)C(=O)N(C)C [Example 176, (S)-2-((4-(6-(5-((R)-3-Hydroxy-1-methyl-2-oxopyrrolidin-3-yl)isoxazol-3-yl)pyridin-2-yl)pyrimidin-2-yl)amino)-N,N-dimethylpropanamide]
IC50: 50 to 500 nM

CN1CC[C@H](n2cc(Nc3nccc(-c4cccc(-c5cc([C@]6(O)CCN(C)C6=O)on5)n4)n3)cn2)[C@@H](F)C1 (single isomer, unassigned) [Example 201]
IC50: < 50 nM

Reference: patent publication US20250282768A1 (Janssen Pharmaceutica NV, priority 2022, published 2025)
